# Assay results from article PMC5358997, “Fixed-dose combination orally disintegrating tablets to treat cardiovascular disease: formulation, in vitro characterization and physiologically based pharmacokinetic modeling to assess bioavailability” (Drug Design, Development and Therapy, 2017).
# How the values were obtained:
# [1] = Dissolution testing of ODTs in biorelevant media (USP 2 paddle), f1/f2 comparison; assay type: physicochemical; details: for Similarity factor f2 / Difference factor f1: single (reference) vs FDC (test) dissolution profile; for Similarity factor f2: similar if above 50; for Difference factor f1: similar if below 15; for >85% dissolution ≤15 min: single and FDC formulations; for Results of f1 and f2 testing: similar if f1 below 15 and f2 above 50
# Method: API dissolution from ODTs in 900 mL biorelevant media was tested in both FaSSIF and FeSSIF at pH 6.5 and 5, respectively, and maintained at 37°C. An ERWEKA DT 600 USP 2 paddle apparatus (Heusenstamm, Germany) was used at a paddle speed of 50 rpm.[27] A total of 5 mL of sample was taken over 2 h, replacing with 5 mL fresh media to simulate sink conditions. API dissolution was measured using HPLC and corrected for percent dose dissolved.
# Differences between dissolution profiles of APIs in single dose (reference) and combination (test) were assessed using f1 and f2 difference and similarity factor testing using the equations:[34] f1={[∑t=1n|Rt−Tt|]/[∑t=1nRt]}*100f2=50*log{[1+(1/n)∑t=1n(Rt−Tt)^2]^−0.5*100} where Rt and Tt are the percent drug-dissolved value at each time point for the reference and test product, respectively, and n is the number of time points.
# [2] = in vitro; details: human; for efflux ratio at 2 h: Caco-2, pH 7.4, Efflux ratio; for Papp A→B at 2 h: Caco-2, pH 7.4, Papp A–B; for Papp B→A at 2 h: Caco-2, pH 7.4, Papp B–A
# Method: Media were changed every 2–3 days and transwells cultured at 37°C, 5% CO2 for 21 days, after which transport studies were performed. […] Samples of 100 μL were removed from the A side and 200 μL from the B side at time points over 2 h, replacing with fresh prewarmed media (37°C) to mimic sink conditions. […] Cultures were maintained at 37°C and 5% CO2 throughout the experiment.
# [3] = test system: LDL-C; details: hypercholesterolemic patients; cited from earlier work
# [4] = amlodipine (20 μg/mL) and atorvastatin (40 μg/mL) in combination, pH 7.4, n=3, mean ± SD
# [5] = drug alone (amlodipine 20 μg/mL, atorvastatin 40 μg/mL), pH 7.4 both compartments, n=3, mean ± SD
SMILES,"Dissolution within 15 min ([1]; FaSSIF, both single and FDC ODT)",Similarity factor f2 ([1]; FaSSIF),Difference factor f1 ([1]; FaSSIF),>85% dissolution ≤15 min ([1]; FaSSIF),Results of f1 and f2 testing ([1]; FaSSIF),"Dissolution within 15 min ([1]; FeSSIF, either single or FDC ODT)",Similarity factor f2 ([1]; FeSSIF),Difference factor f1 ([1]; FeSSIF),>85% dissolution ≤15 min ([1]; FeSSIF),Results of f1 and f2 testing ([1]; FeSSIF),"efflux ratio at 2 h ([2]; amlodipine and atorvastatin in combination, pH 7.4)","efflux ratio at 2 h ([2]; drug alone, pH 7.4 both compartments)","Papp A→B at 2 h [2, 4]","Papp A→B at 2 h [2, 5]","Papp B→A at 2 h [2, 4]","Papp B→A at 2 h [2, 5]",Reduction of LDL-C [3]
"CCOC(=O)C1=C(COCCN)NC(C)=C(C(=O)OC)C1c1ccccc1Cl (centres unmarked) [Amlodipine, Amlodipine besylate]",exceeded 85%,70.80,5.08,Yes,Pass,≤ 85%,45.40,15.92,No,Fail,0.96,1.14,5.4 ± 0.48 ×10⁻⁶ cm/s,8.34 ± 0.32 ×10⁻⁶ cm/s,5.18 ± 0.29 ×10⁻⁶ cm/s,9.51 ± 1.7 ×10⁻⁶ cm/s,–
"CC(C)c1c(C(=O)Nc2ccccc2)c(-c2ccccc2)c(-c2ccc(F)cc2)n1CC[C@@H](O)C[C@@H](O)CC(=O)O [Atorvastatin, atorvastatin calcium]",–,53.81,14.16,–,Pass,–,54.59,13.24,–,Pass,–,–,–,–,–,–,41%–61%
